Biological target: T1, glucokinase (residues 12-465 of the human enzyme) (Homo sapiens, UniProt P35557)
T1 construct: FLAG (vector pFLAG-CTC) (C); made in house; host or cells: E. coli DH10b-T1r (pFLAG-CTC)
T1 sequence (P35557 12-465): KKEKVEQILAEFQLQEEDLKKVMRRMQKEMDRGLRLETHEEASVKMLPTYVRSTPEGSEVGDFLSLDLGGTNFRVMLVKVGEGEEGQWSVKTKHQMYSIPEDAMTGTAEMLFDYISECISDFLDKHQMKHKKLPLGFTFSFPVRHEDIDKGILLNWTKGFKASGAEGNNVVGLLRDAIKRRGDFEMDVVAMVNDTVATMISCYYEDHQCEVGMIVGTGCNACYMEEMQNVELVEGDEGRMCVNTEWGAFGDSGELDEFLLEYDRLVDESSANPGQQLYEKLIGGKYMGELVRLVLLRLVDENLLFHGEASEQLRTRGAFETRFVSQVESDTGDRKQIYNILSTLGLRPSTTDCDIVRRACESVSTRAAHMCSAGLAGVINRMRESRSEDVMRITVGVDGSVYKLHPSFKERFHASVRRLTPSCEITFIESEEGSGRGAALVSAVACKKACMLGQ
Assay: Measurement of GK activation value (ATP/glucose, luciferase luminescence)
Assay type: biochemical
Conditions: values given as ranges; for EC50: Kact = concentration that displays 50% of the maximal increase in GK activity, room temperature, 60 min, read-out: pKact; for Emax: calculated maximal gain in GK enzyme activity at a saturating concentration of the compound, read-out: % ACTmaxc
Source text: Purified glucokinase may be obtained as follows. DNA encoding residues 12-465 of the full-length sequence of the human enzyme may be amplified by PCR and cloned into the HindIII and EcoRI sites of pFLAG-CTC (Sigma). SEQ ID No. 5 corresponds to residues 12-465 of glucokinase.
The expression of recombinant glucokinase protein may be carried out by transformation and growth of DH10b-T1r E. coli cells incorporating the (pFLAG-CTC) plasmid in LB media. Protein expression can be induced in this system by the addition of IPTG to the culture medium.
Recombinant protein may be isolated from cellular extracts by passage over Sepharose Q Fast Flow resin (Pharmacia). This partially purified GK extract may then be further purified by a second passage over Poros HQ10 (Applied Biosystems). The purity of GK may be determined on denaturing SDS-PAGE gel. Purified GK may then be concentrated to a final concentration of 20.0 mg/ml. After flash freezing in liquid nitrogen, the proteins can be stored at −78° C. in a buffer containing 25 mM TRIS-HCl pH 7.6, 50 mM NaCl, and 0.5 mM TCEP.
The assay reaction may be initiated as follows: 4 μl of substrate mixture (12.5 μM ATP and 12.5 mM Glucose) was added to each well of the plate, followed by the addition of 2 μl of activator (2 fold serial dilutions for 11 data points for each activator) containing 10% DMSO. 4 μL of 1.25 nM GK solution may be added to initiate the reaction. The reaction mixture may then be incubated at room temperature for 60 min, and quenched and developed by addition of 10 μL of luciferase reagent. Luminescence intensities of the resulting reaction mixtures may be measured after a 10 min incubation at room temperature. The luminescence intensity may be measured by using the Analyst HT from LJL Biosystems.
pKact and % ACTmax values may be calculated by non-linear curve fitting of the compound concentrations and luminescence intensities to a standard inhibition/activation equation.

Work on `CC(C)Oc1ccc(OCc2ccccc2)cc1-c1nc2cc(-c3cccc(F)c3)cnc2[nH]1` [Example 71, 2-[5-(benzyloxy)-2-isopropoxyphenyl]-6-(3-fluorophenyl)-3H-imidazo[4,5-b]pyridine] yielded an EC50 of 398 to 1000 nM and an Emax of 20 to 29.9%.

Compound `CC(C)Oc1cc(OCc2ccccc2)cc(-c2nc3cccnc3[nH]2)c1` [Example 158, 2-(3-(benzyloxy)-5-isopropoxyphenyl)-3H-imidazo[4,5-b]pyridine] has an EC50 of 126 to 316 nM and an Emax of 20 to 29.9%.

`CC(C)Oc1cc(OCCCc2ccccc2)cc(-c2nc3cccnc3[nH]2)c1` [Example 159, 2-(3-isopropoxy-5-(3-phenylpropoxy)phenyl)-3H-imidazo[4,5-b]pyridine] was tested, and the EC50 was 398 to 1000 nM and the Emax was 20 to 29.9%.

Work on `CC(C)Oc1cc(OCCc2ccccc2)cc(-c2nc3cccnc3[nH]2)c1` [Example 161, 2-(3-isopropoxy-5-phenethoxyphenyl)-3H-imidazo[4,5-b]pyridine] yielded an EC50 of under 100 nM and an Emax of 30 to 49.9%.

Work on `Cn1ccnc1COc1cc(OCc2ccccc2)cc(-c2nc3cccnc3[nH]2)c1` [Example 162, 2-(3-(benzyloxy)-5-((1-methyl-1H-imidazol-2-yl)methoxy)phenyl)-3H-imidazo[4,5-b]pyridine] yielded an EC50 of 126 to 316 nM and an Emax of over 70%.

`Cn1ccnc1COc1cc(OCc2ccccc2)cc(-c2nc3cc(Br)cnc3[nH]2)c1` [Example 163, 2-(3-(benzyloxy)-5-((1-methyl-1H-imidazol-2-yl)methoxy)phenyl)-6-bromo-3H-imidazo[4,5-b]pyridine] gave an EC50 of under 100 nM and an Emax of 50 to 69.9%.

Compound `Cn1ccnc1COc1cc(OCCc2ccsc2)cc(-c2nc3cc(Br)cnc3[nH]2)c1` [Example 164, 6-bromo-2-(3-((1-methyl-1H-imidazol-2-yl)methoxy)-5-(2-(thiophen-3-yl)ethoxy)phenyl)-3H-imidazo[4,5-b]pyridine] has an EC50 of 126 to 316 nM and an Emax of 50 to 69.9%.

In the case of `Cn1ccnc1COc1cc(OCc2ccccc2F)cc(-c2nc3cccnc3[nH]2)c1` [Example 165, 2-(3-(2-fluorobenzyloxy)-5-((1-methyl-1H-imidazol-2yl)methoxy)phenyl)-3H-imidazo[4,5-b]pyridine], the EC50 is reported as under 100 nM and the Emax is reported as over 70%.

`Cn1ccnc1COc1cc(OCc2ccccc2F)cc(-c2nc3cc(Cl)cnc3[nH]2)c1` [Example 166, 6-chloro-2-(3-(2-fluorobenzyloxy)-5-((1-methyl-1H-imidazol-2-yl)methoxy)phenyl)-3H-imidazo[4,5-b]pyridine] showed an EC50 of under 100 nM and an Emax of over 70%.

Compound `Cn1ccnc1COc1cc(OCc2ccccc2F)cc(-c2nc3cc(Br)cnc3[nH]2)c1` [Example 167, 6-bromo-2-(3-(2-fluorobenzyloxy)-5-((1-methyl-1H-imidazol-2-yl)methoxy)phenyl)-3H-imidazo[4,5-b]pyridine] has an EC50 of under 100 nM and an Emax of over 70%.

In the case of `Cn1ccnc1COc1cc(OCc2ccccc2F)cc(-c2nc3cc(CCCO)cnc3[nH]2)c1` [Example 168, 3-(2-(3-(2-fluorobenzyloxy)-5-((1-methyl-1H-imidazol-2-yl)methoxy)phenyl)-3H-imidazo[4,5-]pyridin-6-yl)propan-1-ol], the EC50 is reported as 126 to 316 nM and the Emax is reported as over 70%.

Work on `COC[C@@H](C)Oc1cc(OCc2ccccc2F)cc(-c2nc3cccnc3[nH]2)c1` [Example 172, (R)-2-(3-(2-fluorobenzyloxy)-5-(1-methoxypropan-2-yloxy)phenyl)-3H-imidazo[4,5-b]pyridine] yielded an EC50 of 398 to 1000 nM and an Emax of 50 to 69.9%.

`COC[C@@H](C)Oc1cc(OCc2ccccc2F)cc(-c2nc3cc(Cl)cnc3[nH]2)c1` [Example 173, (R)-6-chloro-2-(3-(2-fluorobenzyloxy)-5-(1-methoxypropan-2-yloxy)phenyl)-3H-imidazo[4,5-b]pyridine] showed an EC50 of 126 to 316 nM and an Emax of 50 to 69.9%.

In the case of `COC[C@@H](C)Oc1cc(OCc2ccccc2F)cc(-c2nc3cc(Br)cnc3[nH]2)c1` [Example 174, (R)-6-bromo-2-(3-(2-fluorobenzyloxy)-5-(1-methoxypropan-2-yloxy)phenyl)-3H-imidazo[4,5-b]pyridine], the EC50 is reported as 126 to 316 nM and the Emax is reported as 30 to 49.9%.

`COC[C@H](C)Oc1cc(OCc2ccccc2F)cc(-c2nc3cc(CCCO)cnc3[nH]2)c1` [Example 177, (S)-3-(2-(3-(2-fluorobenzyloxy)-5-(1-methoxypropan-2-yloxy)phenyl)-3H-imidazo[4,5-b]pyridin-6-yl)propan-1-ol] showed an EC50 of 398 to 1000 nM and an Emax of 20 to 29.9%.

`COC[C@H](C)Oc1cc(Oc2ccc(S(C)(=O)=O)cc2)cc(-c2nc3cccnc3[nH]2)c1` [Example 181, (S)-2-(3-(1-methoxypropan-2-yloxy)-5-(4-(methylsulfonyl)phenoxy)phenyl)-3H-imidazo[4,5-b]pyridine] gave an EC50 of 398 to 1000 nM and an Emax of over 70%.

`Brc1cnc2[nH]c(-c3ccccc3Oc3ccccc3)nc2c1` [Example 188, 6-bromo-2-(2-phenoxyphenyl)-3H-imidazo[4,5-b]pyridine] gave an EC50 of 398 to 1000 nM and an Emax of 30 to 49.9%.

`CC(C)Oc1ccc(/C=C/c2ccccc2)cc1-c1nc2cccnc2[nH]1` [Example 196, (E)-2-(2-isopropoxy-5-styrylphenyl)-3H-imidazo[4,5-b]pyridine] was tested, and the EC50 was 398 to 1000 nM and the Emax was over 70%.

`Cn1ccnc1CNc1cc(NS(=O)(=O)c2ccccc2)cc(-c2nc3cc(Br)cnc3[nH]2)c1` [Example 213, N-(3-(6-bromo-3H-imidazo[4,5-b]pyridin-2-yl)-5-((1-methyl-1H-imidazol-2-yl)methylamino)phenyl)benzenesulfonamide] showed an EC50 of 126 to 316 nM and an Emax of 30 to 49.9%.

`Cn1ccnc1CNc1cc(NS(C)(=O)=O)cc(-c2nc3cc(Br)cnc3[nH]2)c1` [Example 214, N-(3-(6-bromo-3H-imidazo[4,5-b]pyridin-2-yl)-5-((1-methyl-1H-imidazol-2-yl)methylamino)phenyl)methanesulfonamide] was tested, and the EC50 was 398 to 1000 nM and the Emax was 30 to 49.9%.

`COc1ccc(OCc2ccccc2)cc1-c1nc2cc(Br)cnc2[nH]1` [Example 243, 2-(5-(benzyloxy)-2-methoxyphenyl)-6-bromo-3H-imidazo[4,5-b]pyridine] gave an EC50 of 126 to 316 nM and an Emax of 30 to 49.9%.

For `Brc1cnc2[nH]c(-c3ccccc3Oc3cccnc3)nc2c1` [Example 244, 6-bromo-2-(2-(pyridin-3-yloxy)phenyl)-3H-imidazo[4,5-b]pyridine], the EC50 was 398 to 1000 nM and the Emax was 20 to 29.9%.

`Fc1ccccc1COc1cc(Oc2ncccn2)cc(-c2nc3cc(Br)cnc3[nH]2)c1` [Example 245, 6-bromo-2-(3-(2-fluorobenzyloxy)-5-(pyrimidin-2-yloxy)phenyl)-3H-imidazo[4,5-b]pyridine] gave an EC50 of 398 to 1000 nM and an Emax of over 70%.

Compound `COc1ccc(/C=C/c2ccncc2)cc1-c1nc2cccnc2[nH]1` [Example 246, (E)-2-(2-methoxy-5-(2-(pyridin-4-yl)vinyl)phenyl)-3H-imidazo[4,5-b]pyridine] has an EC50 of 398 to 1000 nM and an Emax of 30 to 49.9%.

Source: patent publication US8124617B2, “Imidazopyridine compounds” (Takeda San Diego, Inc., priority 2005, dated 2012)
